# Experimental data from patent US20220095617A1, “PLANT GROWTH REGULATING AGENT” (IDEMITSU KOSAN CO.,LTD., priority 2019, published 2022).
# “And” between values parts separate entries of the source, which are not always exact repeats. Equal values may be shown once. Read-outs that look alike come from different tables or passages of the source.
# Columns and labels:
# Format in all cases: in vivo
# lettuce (Green Wave) [1] = test: Example 3: High-temperature stress Petri dish test (lettuce), blending with β-carotene; details: 0.1 ppm
# Rice (Koshihikari) seeds = test: Example 5: High-temperature stress Petri dish test (rice seeds); details: for Germination rate, Increase rate: non-addition group = 100.0; for Germination rate, Average: seeds 65° C. hot water 10 minutes, 28° C. 5 days
# Protocol: Rice (Koshihikari) seeds were soaked in hot water at 65° C. for 10 minutes to perform high-temperature treatment. […] A group similarly soaked in distilled water was provided as a non-addition group. After the soaking treatment, the seeds were dried in air, and then 20 seeds were sown on each of shallow Petri dishes in which qualitative filter paper was placed. To the filter paper in each Petri dish, 5 mL of distilled water was uniformly added dropwise. […] For each group, three measurement results were obtained (N=3).
# Bent grass (Penncross) = test: Example 8: High-temperature stress pot test (bent grass); details: for Weight of above-ground part, Increase rate: non-addition group = 100.0; for Weight of above-ground part, Average: greenhouse average daytime 50° C., 7 days, fresh weight
# Protocol: Bent grass (Penncross, Snow Brand Seed Co., Ltd.) was uniformly sown on pots filled with seedling culture soil (manufactured by Katakura & Co-op Agri Corporation; Kumiai seedling culture soil for gardening Genkikun No. 1) (soil volume, 100 ml), and cultivated for 14 to 20 days, followed by evenly cutting the above-ground part to a length of about 1 cm on the day before application of hesperidin. […] A non-addition group was similarly subjected to drenching treatment using distilled water. High-temperature treatment was carried out by cultivation in a glass greenhouse (average daytime temperature, […]) for 7 days, and then the fresh weight of the above-ground part was evaluated. For each group, three measurement results were obtained (N=3).
# [2] = tested on: Cucumber (Hanjirofushinari); test: Example 13: Salt stress pot test (cucumber); details: foliar spraying 1 ppm (dilution of wettable powder formulation)
# Protocol: Cucumber (Hanjirofushinari, Takii & Co., Ltd.) was sown on pots filled with seedling culture soil (manufactured by Katakura & Co-op Agri Corporation; Kumiai seedling culture soil for gardening Genkikun No. 1) (soil volume, 100 ml), and cultivated for 21 days. With a wettable powder formulation containing 1% hesperidin having the formulation composition shown in Table 11, a dilution was prepared such that the final concentration of hesperidin was 1 ppm. For each pot, 10 ml of the dilution was applied by foliar spraying. The cucumber was left to stand in a dilution whose final NaCl concentration was adjusted to 75 mM, and allowed to absorb water from the bottom. Cultivation was carried out in a greenhouse (20 to 25° C.) for 7 days, and then the fresh weight of the above-ground part was measured. For each group, six measurement results were obtained (N=6).
# Dent corn (34V52) = test: Example 14: Growth-promoting effect (dent corn); details: for Increase/decrease of above-ground part / Increase/decrease of underground part: non-addition group = 100%; for Weight of above-ground part FW / Weight of underground part FW: 25° C., 14 days
# Protocol: Dent corn (34V52) was sown on pots filled with seedling culture soil (manufactured by Katakura & Co-op Agri Corporation; Kumiai seedling culture soil for gardening Genkikun No. 1) (soil volume, 130 ml). After confirmation of the germination, drenching treatment was carried out with 5 ml each of dilutions of hesperidin prepared at final concentrations of 1 to 10 ppm (using water as the solvent). […]
# Wheat (Satonosora) = test: Example 15: Growth-promoting effect (wheat); details: for Increase/decrease of above-ground part / Increase/decrease of underground part: non-addition group = 100%; for Weight of above-ground part FW / Weight of underground part FW: 25° C., 14 days
# Protocol: Wheat (Satonosora) was sown on pots filled with seedling culture soil (manufactured by Katakura & Co-op Agri Corporation; Kumiai seedling culture soil for gardening Genkikun No. 1) (soil volume, 100 ml). After […] of the germination, drenching treatment was carried out with 5 ml each of dilutions of hesperidin prepared at final concentrations of 10 to 33 ppm (using water as the solvent). […]
# Cabbage (Okina) = test: Example 18: Growth-promoting effect (cabbage, seed dressing); details: for Increase/decrease of above-ground part / Increase/decrease of underground part: non-addition group = 100%; for Weight of above-ground part FW / Weight of underground part FW: 25° C., 28 days
# Protocol: For cabbage (Okina, Takii & Co., Ltd.), seed dressing was carried out by application, at 5% seed weight, of a dilution of hesperidin prepared at a final concentration of 1 to 100 ppm (using water as the solvent). The dressed cabbage seeds were sown on a cell tray filled with seedling culture soil (manufactured by Nihon Hiryo Co., Ltd.; “Naebijin N100”). […]
# Sphaerotheca cucurbitae = test: Example 20: Control effect against cucumber powdery mildew; details: 14 days
# Protocol: […] cucumber (Hanjirofushinari, Takii & Co., Ltd.) in the two leaf stage, and foliar spraying of 15 ml each of dilutions of hesperidin prepared at final concentrations of 10 to 1000 ppm (using 0.01% Tween 20 solution as the solvent) was carried out. After air-drying, foliar spraying of cucumber powdery mildew spores (1×10^4 spores/ml, using 0.01% Tween 20 solution as the solvent) was carried out. After air-drying, cultivation was carried out in a greenhouse for 14 days, and then the control effect was evaluated.
# Preventive value=100−(damage in the addition group/damage in the non-addition group)×100 (Equation 3)
# Phythophthora infestans = details: 14 days
# lettuce (Green Wave) [3] = test: Example 23: Metal stress Petri dish test (lettuce); details: Metal stress (AlCl3 100 μM), 1 ppm
compound,measurement,setting,value
COc1ccc([C@@H]2CC(=O)c3c(O)cc(O[C@@H]4O[C@H](CO[C@@H]5O[C@@H](C)[C@H](O)[C@@H](O)[C@H]5O)[C@@H](O)[C@H](O)[C@H]4O)cc3O2)cc1O [Hesperidin],Root length,"lettuce (Green Wave) [1]; High-temperature treatment (42° C., 1.5 hours)",15.0 mm
same,Root length,lettuce (Green Wave) [1]; Normal cultivation,22.2 mm
same,"Germination rate, Increase rate",Rice (Koshihikari) seeds; 1 ppm,131.5%
same,"Germination rate, Increase rate",Rice (Koshihikari) seeds; 10 ppm,146.6%
same,"Germination rate, Increase rate",Rice (Koshihikari) seeds; 100 ppm,134.0%
same,"Germination rate, Average",Rice (Koshihikari) seeds; then soaked 1 hour at 1 ppm,77.3%
same,"Germination rate, Average",Rice (Koshihikari) seeds; then soaked 1 hour at 10 ppm,86.2%
same,"Germination rate, Average",Rice (Koshihikari) seeds; then soaked 1 hour at 100 ppm,78.8%
same,"Weight of above-ground part, Increase rate",Bent grass (Penncross); 0.06 ppm,151.7%
same,"Weight of above-ground part, Increase rate",Bent grass (Penncross); 0.6 ppm,162.2%
same,"Weight of above-ground part, Average",Bent grass (Penncross); drenching 0.06 ppm,3.3 g
same,"Weight of above-ground part, Average",Bent grass (Penncross); drenching 0.6 ppm,3.6 g
same,Death of the above-ground part (FIG. 1),"Bent grass (Penncross); groups subjected to drenching treatment (0.06 to 0.6 ppm), after high-temperature treatment",no death was found
same,Fresh weight of above-ground part,[2]; Normal cultivation,4.2 g
same,Fresh weight of above-ground part,"[2]; Salt treatment (75 mM NaCl, 7 days)",3.6 g
same,Increase/decrease of above-ground part,Dent corn (34V52); 1 ppm,114%
same,Increase/decrease of underground part,Dent corn (34V52); 1 ppm,126%
same,Increase/decrease of above-ground part,Dent corn (34V52); 3 ppm,111%
same,Increase/decrease of underground part,Dent corn (34V52); 3 ppm,123%
same,Increase/decrease of above-ground part,Dent corn (34V52); 10 ppm,104%
same,Increase/decrease of underground part,Dent corn (34V52); 10 ppm,103%
same,Weight of above-ground part FW,Dent corn (34V52); drenching 1 ppm,6.5 mg/individual
same,Weight of underground part FW,Dent corn (34V52); drenching 1 ppm,5.1 mg/individual
same,Weight of above-ground part FW,Dent corn (34V52); drenching 3 ppm,6.3 mg/individual
same,Weight of underground part FW,Dent corn (34V52); drenching 3 ppm,5.0 mg/individual
same,Weight of above-ground part FW,Dent corn (34V52); drenching 10 ppm,5.9 mg/individual
same,Weight of underground part FW,Dent corn (34V52); drenching 10 ppm,4.2 mg/individual
same,Increase/decrease of above-ground part,Wheat (Satonosora); 10 ppm,123%
same,Increase/decrease of underground part,Wheat (Satonosora); 10 ppm,107%
same,Increase/decrease of above-ground part,Wheat (Satonosora); 33 ppm,116%
same,Increase/decrease of underground part,Wheat (Satonosora); 33 ppm,104%
same,Weight of above-ground part FW,Wheat (Satonosora); drenching 10 ppm,364.9 mg/individual
same,Weight of underground part FW,Wheat (Satonosora); drenching 10 ppm,391.6 mg/individual
same,Weight of above-ground part FW,Wheat (Satonosora); drenching 33 ppm,345.4 mg/individual
same,Weight of underground part FW,Wheat (Satonosora); drenching 33 ppm,382.6 mg/individual
same,Increase/decrease of above-ground part,Cabbage (Okina); 1 ppm,106%
same,Increase/decrease of underground part,Cabbage (Okina); 1 ppm,108%
same,Increase/decrease of above-ground part,Cabbage (Okina); 10 ppm,112%
same,Increase/decrease of underground part,Cabbage (Okina); 10 ppm,106%
same,Increase/decrease of above-ground part,Cabbage (Okina); 100 ppm,106%
same,Increase/decrease of underground part,Cabbage (Okina); 100 ppm,101%
same,Weight of above-ground part FW,Cabbage (Okina); seed dressing 1 ppm,54.0 mg/individual
same,Weight of underground part FW,Cabbage (Okina); seed dressing 1 ppm,15.6 mg/individual
same,Weight of above-ground part FW,Cabbage (Okina); seed dressing 10 ppm,57.2 mg/individual
same,Weight of underground part FW,Cabbage (Okina); seed dressing 10 ppm,15.3 mg/individual
same,Weight of above-ground part FW,Cabbage (Okina); seed dressing 100 ppm,53.9 mg/individual
same,Weight of underground part FW,Cabbage (Okina); seed dressing 100 ppm,14.6 mg/individual
same,optimum concentration of hesperidin to be added for cabbage,"Cabbage (Okina); seed dressing, growth promotion",lower than 100 ppm
same,Preventive value,Sphaerotheca cucurbitae; 10 ppm foliar spraying on cucumber,5.0
same,Preventive value,Sphaerotheca cucurbitae; 100 ppm foliar spraying on cucumber,50.0
same,Preventive value,"Sphaerotheca cucurbitae; 1,000 ppm foliar spraying on cucumber",68
same,Preventive value,Phythophthora infestans; 10 ppm foliar spraying on tomato (Regina),37.4
same,Preventive value,Phythophthora infestans; 30 ppm foliar spraying on tomato (Regina),86.0
same,Preventive value,Phythophthora infestans; 100 ppm foliar spraying on tomato (Regina),92 and 92.1
same,"Root length, Average",lettuce (Green Wave) [3],22.87 mm
same,"Root length, Increase rate",lettuce (Green Wave) [3]; non-addition group = 100.0,137.6%
